Consider three compounds from patent publication EP0170168A2, “N,N,-diethyl, N'-aryl, N'-(dichlorfluormethylthio)sulfamide-microbiocides” (BAYER AG, priority 1984, dated 1986).

Series [1] has as its system Coniophora puteana. Kind of series: Toxic limit values on impregnated wood discs (method after Sutter), pine wood. The note with it: Coniophora puteana (Kiefer). The format is cell-based. The text has this: (§1) Bestimmung der toxischen Grenzwerte (kg/m^3 Holz) der Wirkstoffe gemäß Beispiel 1 und 2 für Coniophora puteana bzw. Coriolus versicolor auf Kiefern- bzw. Buchenholz. Die Bestimmung der toxischen Grenzwerte erfolgt in Anlehnung an die von H.P. Sutter, Int. Biodeterioration Bulletin 14 (3), 1978, Seiten 95 bis 99, beschriebenen Methode.
(§2) Für die Tests werden jeweils frisch geschnittene dünne Stirnholzscheibchen (Größe 40 x 40 mm, Dicke etwa 2 mm) im Vakuum mit Lösungen unterschiedlich definierter Wirkstoffkonzentration getränkt. Die Menge des absorbierten Wirkstoffs in kg/m^3 Holz wird aus der Retention der Lösung (durch Einzelwägung der Holzproben vor und nach der Imprägnierung bestimmt), der Holzdichte und der Konzentration des Wirkstoffs in der verwendeten Imprägnierlösung errechnet.
(§3) Je 5 der 15 getrockneten Prüflinge einer Wirkstoffkonzentration werden dem Pilzangriff ohne Belastung ausgesetzt, 5 weitere Proben werden vorher im Windkanal (Windgeschwindigkeit: 1 + 0,1 m/sec; Temp.: 40 + 2°C) 4 Wochen lang belastet, 5 andere Prüflinge werden einer Wässerung in Anlehnung an DIN EN 84 unterzogen (14 Tage Lagerung in dest. Wasser bei 20°C, 9-maliger Wasserwechsel).
(§4) Für den mykologischen Test werden die Prüflinge nach Sterilisieren mit Propylenoxid einzeln auf das voll entwickelte Pilzmycel des Prüfpilzes auf Malzextraktagar in Petrischalen aufgelegt, durch Distanzhalter beträgt der Abstand zwischen Agaroberfläche und Probe ca. 5 mm. Nach 6wöchiger Lagerung bei 21-23°C wird der Zerstörungsgrad der Prüfling visuell beurteilt.
(§5) Als Grenzwerte der toxischen Wirkung werden die beiden Konzentrationen des Wirkstoffs in kg/m^3 Holz ermittelt, bei denen das Holz gerade noch und nicht mehr angegriffen wird.
(§6) In der folgenden Tabelle sind die Mittelwerte der Toxizitätsgrenzwerte für die erfindungsgemäßen Substanzen gemäß Beispiel 1 und 2 sowie für den bekannten Wirkstoff Dichlorfluonid für zwei Prüfpilze und zwei verschiedene Holzarten angegeben.
(§7) Mittlere Toxizitätsgrenzen (kg/m^3 Holz) von Wirkstoffen gemäß Beispiel 1 und 2 für holzzerstörende Pilze.

The test system of series [2] is Coriolus versicolor. Kind of series: Toxic limit values on impregnated wood discs (method after Sutter), beech wood. The format is cell-based. The note with it: Coriolus versicolor (Buche).
Source text: as §1, §2, §3, §4, §5, §6, §7

Series [3] in a line: Solubility in organic solvents for wood preservatives. As to conditions: for Löslichkeit (%) in Shellsol AB: solvent Shellsol AB; for Löslichkeit (%) in Testbenzin: solvent Testbenzin. Format: physicochemical. From the text:
Löslichkeiten erfindungsgemäßer Wirkstoffe nach Beispiel 1 und 2 im Vergleich zum handelsüblichen Dichlofluanid in organischen Lösungsmitteln für Holzschutzmittel
(Testbenzin und Shellsol AB sind handelsübliche niedrigsiedende Kohlenwasserstoffe).

[4] abbreviates: nach Belüftung (wind tunnel 4 weeks, 40°C).
Setting [5] is: nach Wässerung (14 days in distilled water, 20°C).
The mark [6] stands for this setting: ohne Belastung, 6 weeks at 21-23°C.

Each structure is given as a SMILES string.

Consider `CCN(CC)S(=O)(=O)N(SC(F)(Cl)Cl)c1ccccc1` [Beispiel 1, N,N-Diethyl-N'-phenyl-N'-(dichlorfluormethylthio)-sulfamid], for which the “Mittlere Toxizitätsgrenzen” value in series [1] (setting [4]) is listed as 2,0 kg/m^3 Holz; in series [1] (setting [5]), 0,8 kg/m^3 Holz; in series [1] (setting [6]), 0,4 kg/m^3 Holz; in series [2] (setting [4]), 2,7 kg/m^3 Holz; in series [2] (setting [5]), 1,1 kg/m^3 Holz; in series [2] (setting [6]), 0,6 kg/m^3 Holz. Also, the “Löslichkeit (%) in Shellsol AB” value in series [3] amounted to 71%. The “Löslichkeit (%) in Testbenzin” value in series [3] is given as 16%.

With `CCN(CC)S(=O)(=O)N(SC(F)(Cl)Cl)c1ccc(C)cc1` [Beispiel 2, N,N-Diethyl-N'-(p-tolyl)-N'-(dichlorfluormethylthio)-sulfamid], the “Mittlere Toxizitätsgrenzen” value in series [1] (setting [6]) is given as 0,7 kg/m^3 Holz; in series [2] (setting [6]), 1,5 kg/m^3 Holz. Also, the “Löslichkeit (%) in Shellsol AB” value in series [3] was 67%. Also, the “Löslichkeit (%) in Testbenzin” value in series [3] stood at 59%.

On to `CN(C)S(=O)(=O)N(SC(F)(Cl)Cl)c1ccccc1` [Dichlofluanid, N,N-Dimethyl-N'-phenyl-N'-(fluordichlormethylthio)-sulfamid, reference compound], for which the “Mittlere Toxizitätsgrenzen” value in series [1] (setting [4]) was 3,7 kg/m^3 Holz; in series [1] (setting [5]), 2,4 kg/m^3 Holz; in series [1] (setting [6]), 1,9 kg/m^3 Holz; in series [2] (setting [4]), 3,5 kg/m^3 Holz; in series [2] (setting [5]), 3,2 kg/m^3 Holz; in series [2] (setting [6]), 2,5 kg/m^3 Holz. Moreover, the “Löslichkeit (%) in Shellsol AB” value in series [3] is 6%. Further, the “Löslichkeit (%) in Testbenzin” value in series [3] is on record as 1,2%.
